In US20070155755A1, “N-arylshydroxyalkylidene-carboxamide compositions and methods” (priority 2004, published 2007):

How the values were obtained:
[1] = tested on: skin of the upper lip; experiment: Cooling sensation bioassay, ointment applied to skin above the upper lip (philtrum); assay type: in vivo, human; conditions: for duration of action (in words): application to the skin of test subjects; for duration of action, cooling on the skin of the upper lip (FIG. 1 legend): in Aquaphor ointment, concentration not given; for quality of sensation and duration (coolness not cold, duration at least three hours): philtrum method of testing; for duration of action, cooling on the skin of the upper lip: 0.5% wt/vol in Aquaphor ointment
Source text: A reliable place for topical application is on the upper lip, above the vermillion border of the lips, on the philtrum, lateral to the philtrum until the nasolabial folds, and on the lower nostrils. This part of the face is known to be densely innervated with cold receptors, second only to the surface of eyeball. Tingling, cool and cold sensations may be experienced and rated for intensity. This test is quite accurate for predicting the cooling activity of candidate N-arylshydroxyalkylidene-cCarboxamide drugs, but most importantly, it also measures the duration of drug action on the sensory receptors. The duration of action is not measured in a receptor assay and is difficult to quantify on the tongue because of the dynamic fluid conditions in the oral cavity and the presence of taste factors that affect thermosensation.
Bioassay Procedures For bioassay of CPS-195 on the skin, CPS-195 was stirred and dissolved in warm liquid Aquaphor® ointment to yield ointment concentrations of 0.25, 0.5, 1 and 2% wt/vol. After cooling, 50 to 80 mg of the solid ointment was placed on the tip of a plastic stick and applied to the skin above the upper lip, on the philtrum, and lateral to the philtrum up to the nasolabial folds, of test subjects and the onset and duration of cooling sensations recorded.
The intensity of the subjective skin sensation is rated as 0, 1, 2 or 3 with: 0 as no change, 1 as slight coolness, cold, or tingling, 2 as clear cut signal of coolness, cold, or tingling, and 3 as robust cooling or cold. The interval for recording sensations is at 5 min intervals, until two successive zeroes are obtained. The results are averaged values of 4 to 6 separate trials in the same individual. The data are plotted using SigmaPlot (Systat Software, Point Richmond Calif.) and a smoothing function with a negative exponential was used for analysis and statistical fit of the results.
The onset of drug action is taken as the time to reach 2 units of coolness intensity, and offset of drug action is the time when coolness intensity drops below 1.5, after previously surpassing 2 units. The duration of cooling action is defined as the offset time minus the onset time, which in this case averaged […]. The quality of the sensation is also noted, such as refreshing coolness, cold, or if the sensation is accompanied by irritation (stinging or burning). The quality of the sensation is not rated for intensity.

[2] = tested on: dorsal surface of the tongue; experiment: Cooling sensation after placement on the dorsal surface of the tongue; assay type: in vivo, human; conditions: 2 mg on dorsal surface of the tongue
Protocol: The onset of cooling was 3 to 5 min, but once the effect was established, the entire oral cavity and pharyngeal surfaces (oro-, laryngo- and naso-pharynx) felt cool.

[3] = tested on: throat irritation and cough; experiment: Ludipress tablet on the tongue in an individual with throat irritation and cough; assay type: in vivo, human; conditions: 3% wt/wt tablet in Ludipress, 60 mg (1.8 mg CPS-195)
Protocol: CPS-195 was formulated as a 3% wt/wt tablet in Ludipress®, a rapidly disintegrating direct compression excipient made by BASF Corp. The tablet size was 60 mg so each unit contained 1.8 mg of CPS-195. […] For example, applied onto the mucous membranes of the oral cavity it can soothe the discomforts of pharyngitis/laryngitis, oral mucositis, oral ulcers, and idiopathic facial pain. In the pharynx and upper airways, CPS-195 may be used to reduce or to treat cough, asthma, and chronic obstructive pulmonary disease. On the skin, CPS-195 can be used to treat the discomfort of severe acne, eczema, diabetic ulcers, and the like.

[4] = biological target: T1, TRP-M8 receptor (Homo sapiens, UniProt Q7Z2W7); experiment: TRP-M8 receptor assay; assay type: cell-based
T1 construct: expressed in transfected cells
T1 sequence (Q7Z2W7 whole entry): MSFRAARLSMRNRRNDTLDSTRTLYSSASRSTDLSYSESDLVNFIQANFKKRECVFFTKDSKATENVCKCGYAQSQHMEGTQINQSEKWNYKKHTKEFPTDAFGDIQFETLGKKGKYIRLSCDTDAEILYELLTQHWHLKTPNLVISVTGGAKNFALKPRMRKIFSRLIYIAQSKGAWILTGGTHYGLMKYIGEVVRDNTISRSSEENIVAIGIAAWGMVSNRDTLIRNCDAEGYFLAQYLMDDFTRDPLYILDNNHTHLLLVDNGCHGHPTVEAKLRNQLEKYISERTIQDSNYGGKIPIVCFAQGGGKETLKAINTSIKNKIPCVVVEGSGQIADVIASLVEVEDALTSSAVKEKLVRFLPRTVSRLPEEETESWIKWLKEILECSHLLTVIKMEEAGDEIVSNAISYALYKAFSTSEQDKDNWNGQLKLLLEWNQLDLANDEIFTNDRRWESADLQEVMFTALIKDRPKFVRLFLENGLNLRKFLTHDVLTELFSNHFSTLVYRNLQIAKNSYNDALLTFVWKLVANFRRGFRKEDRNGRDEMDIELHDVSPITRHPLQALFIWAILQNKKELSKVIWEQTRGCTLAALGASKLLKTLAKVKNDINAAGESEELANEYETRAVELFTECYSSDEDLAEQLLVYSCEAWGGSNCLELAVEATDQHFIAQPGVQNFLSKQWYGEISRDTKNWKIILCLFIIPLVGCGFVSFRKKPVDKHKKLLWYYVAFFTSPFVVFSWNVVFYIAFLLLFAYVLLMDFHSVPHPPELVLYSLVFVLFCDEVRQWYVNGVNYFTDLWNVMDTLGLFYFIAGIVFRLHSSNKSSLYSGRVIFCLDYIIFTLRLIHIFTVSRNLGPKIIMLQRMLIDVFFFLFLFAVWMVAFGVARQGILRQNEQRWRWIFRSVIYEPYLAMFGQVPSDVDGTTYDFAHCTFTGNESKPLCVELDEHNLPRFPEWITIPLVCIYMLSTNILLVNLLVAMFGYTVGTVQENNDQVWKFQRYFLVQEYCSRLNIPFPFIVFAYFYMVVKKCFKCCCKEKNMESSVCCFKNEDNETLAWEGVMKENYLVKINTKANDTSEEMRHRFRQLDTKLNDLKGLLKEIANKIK
Source text: Tests for Activities of New Compounds. Pain was defined by Sir Charles Sherrington as “the psychic adjunct of an imperative protective reflex”. Psychic events such as cooling, irritation, itch, and pain cannot be expressed by animals (animals cannot say “ouch” or that “it itches”) so the sensory effects of chemicals must be indirectly inferred. Receptor assays, based on cells transfected with the gene for TRP-M8 or TRP-A1, may be used as a model of sensory processes. […] The best information on the pharmacological properties of these chemicals must therefore be derived from human experiment.

For `CC1CCC(C(C)C)C(O)C1` (single isomer, unassigned; (-)) [(−)-menthol, reference compound], the “duration of action (in words)” value [1] was “active for less than one hour”.
`CC(C)[C@@H]1CC[C@@H](C)C[C@H]1C(=O)N(C)CC(O)c1cccc(O)c1` (stereo in doubt) [CPS-195, 2-Isopropyl-5-methyl-cyclohexanecarboxylic acid [2′-hydroxy-2′-(3″-hydroxy-phenyl)-ethyl]-N-methyl-amide] was tested, and the onset of cooling [2] was 3 to 5 min, the “duration of antitussive effect” value [3] was 24 h and the “effect on throat irritation” value [3] was “reduced throat irritation”. The “duration of action, coolness and cold on the skin of the upper lip” value ([1]; 0.25% wt/vol in Aquaphor ointment) was 1.2 h, the “duration of action, coolness and cold on the skin of the upper lip” value ([1]; 1% wt/vol in Aquaphor ointment) was 2.4 h and the “duration of action, coolness and cold on the skin of the upper lip” value ([1]; 2% wt/vol in Aquaphor ointment) was 5.2 h. The “duration of action, cooling on the skin of the upper lip (FIG. 1 legend)” value (shortened to “duration … of the upper lip (FIG. 1 legend)”) [1] was “more than 1 hr” and the “potency compared to CPS-179, CPS-190 and CPS-192” value ([1]; upper lip ointment test) was “most potent”.
For `CC(C)[C@@H]1CC[C@@H](C)C[C@H]1C(=O)Nc1ccc(S(=O)(=O)Nc2ncccn2)cc1` [CPS-125], the “quality of sensation and duration (coolness not cold, duration at least three hours)” value [1] was “qualitative aspects of sensation are met”.
For `CC(=O)c1ccc(C(CO)CNC(=O)[C@@H]2C[C@H](C)CC[C@H]2C(C)C)cc1` (stereo partly shown) [CPS-179, 2-Isopropyl-5-methyl-cyclohexanecarboxylic acid [2′-(4″-acetyl-phenyl)-3′-hydroxy-propyl]-amide], the “duration of action, cooling on the skin of the upper lip” value [1] was “more than 1 hr” and the “duration … of the upper lip (FIG. 1 legend)” value [1] was “more than 1 hr”.
With `CC1CCC(C(C)C)C(C(=O)N(C)CC(O)c2ccc(O)c(O)c2)C1` (stereo not shown) [CPS-190] the “duration of action, cooling on the skin of the upper lip” value [1] was “more than 1 hr” and the “duration … of the upper lip (FIG. 1 legend)” value [1] was “more than 1 hr”.
For `CC1CCC(C(C)C)C(C(=O)NCC(O)c2cccc(O)c2)C1` (stereo not shown) [CPS-192], the “duration of action, cooling on the skin of the upper lip” value [1] was “more than 1 hr” and the “duration … of the upper lip (FIG. 1 legend)” value [1] was “more than 1 hr”.
`CCOC(=O)CNC(=O)[C@@H]1C[C@H](C)CC[C@H]1C(C)C` [WS-5, reference compound] was tested, and the “duration of action (in words)” value [1] was “active for less than one hour”.
For `COc1ccc(NC(=O)[C@@H]2C[C@H](C)CC[C@H]2C(C)C)cc1` [WS-12, reference compound], the “activity on the TRP-M8 receptor assay” value [4] was “active at sub-micromolar concentrations”, the end of action ([1]; 2% preparation) was “dissipated at the end of one hour” and the “time at which duration of action peaks” value ([1]; 2% preparation) was 30 min. For the same compound, the sensation elicited ([1]; applied at 1 to 2% to the philtrum and its environs) was “strong cold sensations” and the “quality of sensation and duration (coolness not cold, duration at least three hours)” value [1] was “sensations of cold, but of brief duration”.
